Experimental data from patent US11241450B2, “Uridine diphosphate derivatives, prodrugs, compositions and uses thereof” (TUFTS UNIVERSITY, priority 2012, dated 2022).
Structures can show the parent of a compound that is named as a salt. Where two headings read alike, the source gives them in different places.

Key:
PSAPP mice [1] = experiment: Contextual fear conditioning test; type: in vivo, mouse
Text: (§1) Heterozygous mutant (K670N/M671L) APP (50% C57B6, 50% SJL) transgenic mice were crossed with heterozygous mutant (A246E) PS-1 (50% C57B6, 50% SJL) transgenic mice to generate heterozygous PSAPP transgenic mice (also referred to as PS-1/APP or PSAPP+/+ mice), which refers to animals heterozygous for the PS-1 A246E transgene and the APP K670N/M671L transgene. Non-transgenic control animals were littermates (also referred to as PSAPP_−/− mice) generated in the breeding for PSAPP transgenic animals. Mouse genotype was determined by Polymerase Chain Reaction (PCR). Both male and female mice of 6-7 months old were used for the experiments below. All animal experiments were performed in accordance with the Tufts Animal Care and Use Committee and with national regulations and policies.
On day one, animals were trained in a fear conditioning apparatus for a total of 7 minutes with a two-pairing paradigm of cue and mild foot shock (a 30-s acoustic-conditioned stimulus, 80 dB; a 2-s shock stimulus, 0.5 mA). To evaluate contextual fear learning, the animals were returned to the training context 24 hours post-training, and freezing behavior was scored for 5 minutes. Freezing behavior was monitored by MotorMonitor (Hamilton Kinder) and scored every 5 seconds.
In this study, the fear conditioning associative learning paradigm was used as a rapid cognition assay for PSAPP mice. This study allowed us to probe cognitive function with a single training day followed in 24 hours by tests for contextual and cued fear learning. Contextual fear learning is dependent upon a brain area that has been implicated as a locus for cognitive decline in AD: the hippocampus. Two pairings of CS-US for fear conditioning were followed 24 hours later by testing for contextual and cued fear learning. Previous studies have reported that PSAPP animals appear to have a selective hippocampus-dependent impairment in associative learning following two pairings of conditioned stimuli for fear conditioning.
This represents a decrease in the cognitive impairment observed in the untreated mice.

P2Y6 receptor [2] = target: T1, P2Y6 receptor (Homo sapiens, UniProt Q15077); conditions: cited from earlier work
T1 sequence (Q15077 whole entry): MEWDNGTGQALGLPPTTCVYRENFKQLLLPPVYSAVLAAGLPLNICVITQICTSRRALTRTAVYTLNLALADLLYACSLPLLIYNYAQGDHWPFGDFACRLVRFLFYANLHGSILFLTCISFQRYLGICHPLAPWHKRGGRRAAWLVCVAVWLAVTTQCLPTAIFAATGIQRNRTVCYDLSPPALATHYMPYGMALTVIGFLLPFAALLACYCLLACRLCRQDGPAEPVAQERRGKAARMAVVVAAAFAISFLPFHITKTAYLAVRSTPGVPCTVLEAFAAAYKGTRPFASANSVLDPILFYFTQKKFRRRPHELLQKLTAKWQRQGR

PSAPP mice [3] = experiment: Tolerability of increased dose in PSAPP mice; type: in vivo, mouse; conditions: 1000× increase in dose
[4] = tested on: amyloid plaques in PSAPP mice; experiment: Postmortem immunohistochemistry of plaque load in cortex and hippocampus; type: in vivo, mouse; conditions: for decrease in plaque load, cortex / decrease in plaque load, hippocampus: acute i.c.v.
Text: as §1
Mice were perfused transcardially with 4% paraformaldehyde and 40 μm Coronal sections were collected. Sections were sequentially incubated in 0.3% H2O2 for 10 minutes, blocking solution for 2 hrs, blocking solution containing the primary antibody (rabbit anti-beta1-42; rabbit anti-beta1-40, from Chemicon International and rat anti-CD45) for 48 hours at 4° C., and blocking solution containing biotinylated antibody or fluorescently-labeled antibody for 2 hours at room temperature. Sections were visualized in a bright field microscope or a confocal microscope, and the optical density was obtained using MetaMorph software.
After repeated imaging, brains were fixed and subjected to postmortem immunohistochemistry with amyloid beta specific antibodies β1-40 and β1-42 to evaluate the plaque load (area occupied by immunostaining of plaque) in cortex and hippocampus.
PSB0474 was systemically administered to PSAPP mice via intraperitoneal injection for 2, 4 and 6 consecutive days. In one group, prior to evaluation and following to administration for 6 consecutive days, treatment was suspended for two weeks (6+2 weeks group). Brains were then fixed and plaque load was evaluated by immunostaining with the amyloid beta specific antibodies: β1-40 and β1-42. Representative images of plaque load in cortex and hippocampus from animals that received injections of PSB0474 according to the foregoing injection schedules are shown in FIG. 5(A)-(D). […] Whereas, when administration of PSB0474 was stopped for 2 weeks following six consecutive days of treatment (denoted as the 6+2 weeks group), β1-40 staining rebounded; although to a level lower than observed in mice treated with saline as a vehicle control. FIGS. 6A and 6B depict the reduction in plaque load (%) the cortex and hippocampus, respectively, in PSAPP mice after treatment with 3-phenacyl-UDP for 2, 4, or 6 consecutive days, as assayed by staining with the β1-40 antibody. FIGS. 6C-6F depict data obtained following administration of different dosages of PSB0474.
To generate these graphs showing plaque load, mice were euthanized, brain sections cut and antibodies directed against Aβ 42 were used to disclose Aβ plaques. Images were acquired digitally and an algorithm was applied to threshold the image so that plaques were isolated from the background. The algorithm then calculated the percent area of the field of view occupied by the plaques.

plasma cytokines = experiment: Plasma cytokine levels after 7 daily i.p. injections; type: in vivo, mouse; conditions: 1 μg/kg i.p., 7 days
Experimental: Inflammatory cytokines were assessed in mouse plasma of both wild type and PS1/APP mice (Alzheimer's mouse model) and the impact of intraperitoneal delivery of compound 5 on circulating cytokines was assessed. Seven daily intraperitoneal injections of 1 μg/kg of compound 5 were delivered to mice. 24 hours following the final injection, plasma was collected. Wildtype, age matched littermates and PSAPP mice (>6 months of age) were treated either with vehicle (phosphate buffered saline) or vehicle containing compound.

[5] = tested on: amyloid plaques in PSAPP mice; experiment: Two-photon in vivo imaging of methoxyX04-labeled amyloid plaques in barrel cortex; design: species or system mouse; conditions: acute i.c.v. injection
Text: as §1
In this study, PSAPP mice were anesthetized using isoflurane and a thin-skull preparation was used to minimize the surface damage. Amyloid plaques were visualized with methoxyX04 labeling and blood plasma was labeled with Rhodamine dextran to facilitate re-localization of the same imaging area. Stack images were obtained using a two-photon system (Prairie Technologies) with excitation at 850 nm. The emission was detected by external photomultiplier tubes (525/70; DLCP 575; 607/45 nm).
Animals were anesthetized and immobilized in a stereotaxic frame. For each injection, 1 μl of 10 mM UDP or other suitable compounds in artificial cerebrospinalfluid (ACSF) as the vehicle were injected intraventricularly using the following coordinates: AP 0.2 mm, ML 1 mm, and DV 2.2 mm.
To evaluate the effect of UDP on plaque burden, two-photon microscopy was used to assess the amyloid plaques in the barrel cortex in living PSAPP mice. Amyloid plaques were stained by systemically administered methoxy-X04. One day prior to imaging, PSAPP mice were injected with methoxyX04 to label the amyloid plaques. On the imaging day, to facilitate the re-location of the same imaging area, blood plasma was labeled with Rhodamine dextran. Images were obtained from the same start- and end-point to ensure the same image volume. […]

PSAPP mice [6] = experiment: Hippocampal long-term potentiation (LTP) recording; type: in vivo, mouse; conditions: acute treatment, HFS
Experimental: Hippocampal slices (350 μm thick) were prepared from 6-month-old PSAPP mice. Baseline responses were obtained every 10 seconds and Input-output (I/O) curves, paired-pulse modification and LTP were successively measured. The stimulation intensity was set to a level that gives a value of 30% of the maximum obtained. LTP were induced by high frequency stimulation (HFS, 100 pulses at 100 Hz, four times) or by theta-burst stimulation (TBS, 10 bursts at 5 Hz, repeated 10 times in 15 s intervals).
Accumulated evidence has shown that amyloid peptides naturally secreted or isolated from Alzheimer's brains impair synaptic plasticity, especially hippocampal long-term potentiation (Walsh et al., 2002). Therefore, we further performed LTP recordings in PASPP mice and investigated whether P2Y6 receptor-mediated plaque clearance affects synaptic plasticity. […] First, it was observed that LTP at the schaffer collateral synapse within the CA1 region was depressed in PSAPP mice, as compared with littermates (FIG. 8(A)).

P2Y6 receptor [7] = target: T1, P2Y6 receptor; experiment: Activation of P2Y6 receptor: Ca2+ changes with fluo-4 in 1321N1 astrocytoma cells expressing P2Y6; type: cell-based; design: expressed in transfected cells; host or cells: 1321N1 human astrocytoma cells
Experimental: Synthetic ligands were tested for activation of P2Y6 receptor by measuring receptor induced Ca^2+ changes with the fluorescent Ca^2+ indicator fluo-4. 1321N1 human astrocytoma cell lines either expressing P2Y2, P2Y4 or P2Y6 receptors were plated into 24-well plates. Two days after plating, fluorometric measurements were made and responses of cells to a serial dilution of ligands were determined. P2Y6 receptor-mediated Ca^2+ fluorescent change was determined by normalized accumulation of fluorescent change of 3 timepoints after ligand administration subtracted by value from ACSF control. Changes in fluorescent intensity were plotted corresponding to ligand concentration in GraphPad. Dose-response curve and EC50 for each ligand was estimated using nonlinear curve fit and Sigmoidal dose-response analysis. […] The sodium salt of compound 5 was only effective at elevating Ca^2+ levels when applied to cells expressing P2Y6 receptors and not effective in P2Y2, or P2Y4 receptor expressing cells. The ability of the sodium salt of compound 5 to elevate Ca^2+ signals in P2Y6 expressing cells was attenuated by addition of the P2Y6 receptor antagonist MRS2578.
(§2) Synthetic ligands were tested for activation of P2Y6 receptor by measuring receptor induced Ca^2+ changes with the fluorescent Ca^2+ indicator fluo-4, and results are shown in FIG. 10(A)-(K). 1321N1 human astrocytoma cell lines either expressing P2Y2, P2Y4 or P2Y6 receptors were plated into 24-well plates. Two days after plating, fluorometric measurements were made and responses of cells to a serial dilution of ligands were determined. P2Y6 receptor-mediated Ca^2+ fluorescent change was determined by normalized accumulation of fluorescent change of 3 timepoints after ligand administration subtracted by value from ACSF control. Changes in fluorescent intensity were plotted corresponding to ligand concentration in GraphPad. Dose-response curve and EC50 for each ligand was estimated using nonlinear curve fit and Sigmoidal dose-response analysis. […]

P2Y4 receptor = target: T2, P2Y4 receptor (Homo sapiens, UniProt P51582); experiment: Ca2+ mobilization with fluo-4 in 1321N1 astrocytoma cells expressing P2Y4; type: cell-based; conditions: 1321N1 cells expressing P2Y4
T2 construct: expressed in transfected cells; host or cells: 1321N1 human astrocytoma cells
T2 sequence (P51582 whole entry): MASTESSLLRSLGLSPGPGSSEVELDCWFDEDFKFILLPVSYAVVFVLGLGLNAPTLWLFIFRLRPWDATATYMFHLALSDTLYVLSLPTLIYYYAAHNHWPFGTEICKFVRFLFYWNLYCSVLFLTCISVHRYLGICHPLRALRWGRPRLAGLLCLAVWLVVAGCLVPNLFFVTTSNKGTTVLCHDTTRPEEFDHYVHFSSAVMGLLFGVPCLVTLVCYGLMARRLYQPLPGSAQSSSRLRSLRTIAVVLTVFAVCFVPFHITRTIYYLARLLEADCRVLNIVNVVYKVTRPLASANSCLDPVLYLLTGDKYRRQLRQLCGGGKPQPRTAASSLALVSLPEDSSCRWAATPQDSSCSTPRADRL
Experimental: as §2, with “fluo-4.” for “fluo-4, and results are shown in FIG. 10(A)-(K).”
(§3) Synthetic ligands were tested for activation of P2Y6 receptor by measuring receptor induced Ca^2+ changes with the fluorescent Ca^2+ indicator fluo-4, and results are shown in FIG. 10(A)-(K). […] Two days after plating, fluorometric measurements were made and responses of cells to a serial dilution of ligands were determined. P2Y6 receptor-mediated Ca^2+ fluorescent change was determined by normalized accumulation of fluorescent change of 3 timepoints after ligand administration subtracted by value from ACSF control. […]

P2Y2 receptor = target: T3, P2Y2 receptor (Homo sapiens, UniProt P41231); experiment: Ca2+ mobilization with fluo-4 in 1321N1 astrocytoma cells expressing P2Y2; type: cell-based; conditions: 1321N1 cells expressing P2Y2
T3 construct: expressed in transfected cells; host or cells: 1321N1 human astrocytoma cells
T3 sequence (P41231 whole entry): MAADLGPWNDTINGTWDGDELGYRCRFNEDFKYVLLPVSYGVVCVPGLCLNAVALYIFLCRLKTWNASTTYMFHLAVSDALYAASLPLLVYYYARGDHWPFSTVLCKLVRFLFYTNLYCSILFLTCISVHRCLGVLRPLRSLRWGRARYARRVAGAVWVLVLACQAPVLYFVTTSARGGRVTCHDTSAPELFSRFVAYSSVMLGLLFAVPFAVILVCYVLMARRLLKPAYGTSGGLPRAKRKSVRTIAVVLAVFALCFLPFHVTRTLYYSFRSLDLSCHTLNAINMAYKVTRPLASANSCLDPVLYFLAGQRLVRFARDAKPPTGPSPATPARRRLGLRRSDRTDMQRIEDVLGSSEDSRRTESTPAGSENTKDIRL
Experimental: as §2, with “fluo-4.” for “fluo-4, and results are shown in FIG. 10(A)-(K).”
as §3

[8] = i.p. daily for 7 consecutive days
[9] = β1-42 antibody, vs vehicle control

O=C(Cn1c(=O)ccn(C2OC(COP(=O)(O)OP(=O)(O)O)C(O)C2O)c1=O)c1ccccc1 (centres unmarked) [3-phenacyl-UDP]
total freezing percentage in context test (PSAPP mice [1]; chronic injection, two doses): increased
memory deficit in contextual fear conditioning test (PSAPP mice [1]; one week treatment with 1 μg/kg): rescued the memory deficit
selectivity for P2Y6 receptor (P2Y6 receptor [2]): > 500 fold
EC50 (P2Y6 receptor [2]; read-out: EC50, P2Y6 receptor agonist): 70 nM
detrimental effects to the animal (PSAPP mice [3]): did not cause detrimental effects
effects on the efficacy endpoint at the higher dose ([4]; 1 mg/kg): smaller effects
β1-40 staining after stopping administration ([4]; 6 consecutive days i.p., then stopped for 2 weeks): rebounded
immunoreactivity of β1-40 in cortex and hippocampus ([4]; i.p. for 4 and 6 consecutive days): significantly decreased

O=c1ccn([C@@H]2O[C@H](COP(=O)(O)OP(=O)(O)O)[C@H](O)C2O)c(=O)n1Cc1noc2ccccc12 (some centres unmarked) [Compound 5]
freezing behavior relative to wildtype animals (PSAPP mice [1]; [8]): restored to a level equivalent to that observed in wildtype animals
total freezing percentage in the context test (PSAPP mice [1]; [8]): increased
plasma level of IL-2 (plasma cytokines; PSAPP mice): reduced
plasma level of IL-7 (plasma cytokines; PSAPP mice): reduced
plasma level of IL-9 (plasma cytokines; PSAPP mice): reduced
plasma level of IL-10 (plasma cytokines; PSAPP mice): reduced
plasma level of IL-15 (plasma cytokines; PSAPP mice): reduced
plasma level of Il-1β (plasma cytokines; PSAPP mice): reduced
plasma level of MIG (plasma cytokines; PSAPP mice): reduced
plasma level of MIP1α (plasma cytokines; PSAPP mice): reduced
plasma level of IL-2 (plasma cytokines; wildtype animals): reduced
plasma level of IL-10 (plasma cytokines; wildtype animals): reduced
Aβ plaque load (%) in the cortex [4, 9]: substantial decrease
Aβ plaque load (%) in the hippocampus [4, 9]: substantial decrease

O=c1ccn([C@@H]2O[C@H](COP(=O)(O)OP(=O)(O)O)[C@@H](O)[C@H]2O)c(=O)[nH]1 [UDP, uridine diphosphate]
freezing behavior during the first 4 minutes (PSAPP mice [1]; acute i.c.v., 5 minute testing time): increased
total freezing percentage (PSAPP mice [1]; acute i.c.v., contextual test): 49%±5%
reduction in plaque load ([5]; day 4 vs day 1, barrel cortex): 17.2%
reduction in the number of plaques ([5]; day 4 vs day 1, barrel cortex): 12.6%
reduction in cross-sectional area of individual identified plaques ([5]; second imaging session): 18.2%
decrease in plaque load, cortex ([4]; β1-40 antibody): 60%
decrease in plaque load, hippocampus ([4]; β1-40 antibody): 62%
decrease in plaque load, cortex ([4]; β1-42 antibody): 48%
decrease in plaque load, hippocampus ([4]; β1-42 antibody): 47%
LTP deficit at CA1 (PSAPP mice [6]): reversed this LTP deficit
field excitatory postsynaptic potential (fEPSP), last 15 min potentiation (PSAPP mice [6]): significant increase

O=c1ccn(C2OC(COP(=O)(O)OP(=O)(O)O)[C@H](O)C2O)c(=O)n1Cc1noc2ccccc12 (some centres unmarked) [sodium salt of compound 5]
elevating Ca2+ levels in cells expressing P2Y6 receptors (P2Y6 receptor [7]; 1321N1 cells expressing P2Y6): effective
EC50 (P2Y6 receptor [7]; 1321N1 cells expressing P2Y6, fluo-4 Ca2+): 12 nM
ability to elevate Ca2+ signals on addition of P2Y6 receptor antagonist MRS2578 (P2Y6 receptor [7]; P2Y6 expressing cells, plus MRS2578): attenuated
elevating Ca2+ levels in P2Y4 receptor expressing cells (P2Y4 receptor): not effective
elevating Ca2+ levels in P2Y2 receptor expressing cells (P2Y2 receptor): not effective
